Experiment: In vitro skin flux of apomorphine by electrotransport from hydrated TECOGEL matrix (horizontal diffusion cell)
Type: in vitro ADME
Conditions: in vitro electrotransport from hydrated TECOGEL matrix across heat separated human epidermis
Text: The diamond symbols show the average data points at particular time intervals and the vertical lines show the standard deviation. Measurement of impedance during hydration of TECOGEL® is reported in FIG. 8 and described in Example 3 below. The flux of apomorphine free base is plotted as a function of electrotransport time (in hrs). The unit for the flux is μg/cm^2 hr. […] It is noted that the TECOGEL® was used to illustrate that hydration can be done and the level of hydration measured. The exact type of polyurethane gel used is not critical as long a gel can be formed that can allow drug ions to migrate under an electrical potential.
The following methodology was used for the in vitro flux experiments for illustrative purposes:
Custom-built horizontal diffusion cells made in-house from DELRIN® polymeric material were used for the in vitro skin flux experiments and heat separated human epidermis was used. A consumable Ag electrode with the same polarity as the drug was adhered to one end of a DELRIN® material diffusion cell that functioned as the donor cell. […]
A Hanson Research MICROETTE™ collection system, interfaced to the experimental set up, collected the drug containing receptor solution from the reservoir underneath the skin directly into HPLC vials. […] The Hanson system collected samples to be analyzed by an HPLC to determine delivery efficiency of the drug in the formulation. […]

rise to steady state time: about 3 hours
steady state flux of apomorphine free base (37° C., until about 24 hours): about 32 μg/cm^2 hr
Compound: CN1CCc2cccc3c2[C@H]1Cc1ccc(O)c(O)c1-3 [apomorphine]

— US20080058703A1, “Drug electrotransport with hydration measurement of hydratable reservoir” (priority 2006, published 2008)
